Assay results from patent US7572803B2 (The Christus Stehlin Foundation for Cancer Research, priority 2007, dated 2009).
Where “and” joins values, the source holds several entries; their conditions need not be identical. Equal values may be shown once.

Columns and labels:
human Bladder tumor line = test: Anti-tumor activity, bladder tumor xenografts in nude mice; type: in vivo; details: oral
Excerpt: (§1) In vivo anti-tumor activity determination. The human tumors used in the experiments discussed herein included 1 bladder line, 3 breast lines, 4 colon lines, 1 DSRCT line, 1 kidney line, 2 melanoma lines, 2 lung lines, 7 pancreatic lines, and 1 prostate line. The hydrated crystalline CZ48 drug was finely suspended in cottonseed oil and stored in a refrigerator for using. The suspension was orally administered to the mice bearing human tumors once a day continuously for 5 days on and 2 days off or once a day for seven days for the whole treatment period. The treatment period for the various tumor lines varied, ranging from two weeks to one year. […] With the continuous schedule (daily treatment), one of those two negatively responded pancreatic tumor lines under the 5/2 schedule achieved the positive response.
(§2) In vivo anti-tumor activity determination. All the animal experiments were performed on nude Swiss mice of the NIH, high-fertility strain. They were bred and raised in laboratory under strict pathogen-free conditions. For anti-tumor activity determination, a tumor xenograft growing in a nude mouse, approximately 1 cm^3 in size, was surgically removed under sterile conditions, finely minced with iridectomy scissors, and suspended in cell culture medium at the ratio 1:10, v/v. […] Tumors growing in animals were checked and measured with a caliper once a week. […]

human Melanoma lines = test: Anti-tumor activity, melanoma xenografts in nude mice; type: in vivo; details: oral
Excerpt: as §1, §2

[1] = In situ single-pass intestinal perfusion, percentage absorption in mouse; type: in vivo, nude mice
Procedure: The determination of percentage absorption of crystalline CZ48 hydrate in mouse. Absorption studies were also performed with crystalline camptothecin-20-O-propionate hydrate by using a mouse perfusion procedure on 4 nude mice. Prior to the in situ single-pass perfusion procedure, HBSS buffer (pH 7.4) consisting of 9.801 g/L HBSS powders, 0.372 g/L NaHCO3, 3.502 g/L glucose, 5.963 g/L HEPES, and 1.164 g/L NaCl was prepared and stored in a refrigerator. The perfusate for the procedure was prepared by mixing a certain amount of the drug, crystalline CZ48 hydrate, with an amount of HBSS buffer. The mixture was heated up to 37° C. (body temperature) right before use. A group of 4 mice with weights ranging from 25 to 30 grams and ages ranging from 9 to 11 months were anesthetized and placed onto a heating plate. The plate was maintained a constant temperature of 37° C. After a perfusion system was set ready with a mouse, two segments of the intestine (small intestine, IS, and colon) were simultaneously perfused with the freshly prepared perfusate. The pump was maintained at a constant flow-rate of 0.191 mL/min for the whole perfusion. Two perfusate samples were collected from each outlet (SI tract or colon) every 30 min. The concentrations of the drug in perfusate from the outlets were determined by HPLC analysis, and the corresponding percentage absorptions were calculated relative to the starting amount of the drug and shown in Table 5.

MYE DSRCT line = test: Effective dose, MYE xenograft in nude mice; type: in vivo, human; details: oral, dose giving positive response
Procedure: (§3) In vivo anti-tumor activity determination. All the animal experiments were performed on nude Swiss mice of the NIH, high-fertility strain. They were bred and raised in laboratory under strict pathogen-free conditions. For anti-tumor activity determination, a tumor xenograft growing in a nude mouse, approximately 1 cm^3 in size, was surgically removed under sterile conditions, finely minced with iridectomy scissors, and suspended in cell culture medium at the ratio 1:10, v/v. One half of 1 mL of this suspension, containing about 50 mg of wet-weight tumor mince was subcutaneously inoculated on the upper half of the dorsal thorax of the mouse. Groups of four or five animals were used. Hydrated crystalline CZ48 was finely suspended in cottonseed oil and then injected into the stomach cavity of the mouse through the anterior abdominal wall using a 26 gauge needle. The weekly schedule used for oral administration of hydrated crystalline CZ48 was once a day for 7 days, or five days on and two days off. This schedule was employed throughout all the animal experiments. Treatment was initiated when the tumor had reached a volume of about 200 mm^3, i.e., well-vascularized, measurable, and growing exponentially. Tumors growing in animals were checked and measured with a caliper once a week. The effective doses were established when a positive response in mouse was reached.

[2] = system: HS766T pancreas tumor line; test: Effective dose, HS766T xenograft in nude mice; type: in vivo, human; details: oral, dose giving positive response
Procedure: as §3

human DSRCT line = test: Anti-tumor activity, DSRCT xenografts in nude mice; type: in vivo; details: oral
Excerpt: as §1, §2

DOY lung tumor line = test: Effective dose, DOY xenograft in nude mice; type: in vivo, human; details: oral, dose giving positive response
Procedure: as §3

BRO melanoma line = test: Effective dose, BRO xenograft in nude mice; type: in vivo, human; details: oral, dose giving positive response
Procedure: as §3

CAK-kidney = test: Effective dose, CAK xenograft in nude mice; type: in vivo, human; details: oral, dose giving positive response
Procedure: as §3

BOL bladder tumor line = test: Effective dose, BOL xenograft in nude mice; type: in vivo, human; details: oral, dose giving positive response
Procedure: as §3

human xenografts = test: In vivo anti-tumor activity against human tumor xenografts in nude mice (all lines); details: oral, cottonseed oil suspension, 5 days-on and 2 days-off schedule
Excerpt: as §1, §2

SPA lung tumor line = test: Effective dose, SPA xenograft in nude mice; type: in vivo, human; details: oral, dose giving positive response
Procedure: as §3

CLO-breast carcinoma = test: Effective dose, CLO xenograft in nude mice; type: in vivo, human; details: oral
Procedure: as §3

SU86.86-pancreas = test: Effective dose, SU86.86 xenograft in nude mice; type: in vivo, human; details: oral, dose giving positive response
Procedure: as §3

PANC1-pancreas = test: Effective dose, PANC1 xenograft in nude mice; type: in vivo, human; details: oral, dose giving positive response
Procedure: as §3

WAR breast tumor line = test: Effective dose, WAR xenograft in nude mice; type: in vivo, human; details: oral, dose giving positive response
Procedure: as §3

[3] = system: MiaPaCa2 pancreas tumor line; test: Effective dose, MiaPaCa2 xenograft in nude mice; type: in vivo, human; details: oral, dose giving positive response
Procedure: as §3

[4] = system: PC3P62 prostate tumor line; test: Effective dose, PC3P62 xenograft in nude mice; type: in vivo, human; details: oral, dose giving positive response
Procedure: as §3

[5] = system: ASPC1 pancreas tumor line; test: Effective dose, ASPC1 xenograft in nude mice; type: in vivo, human; details: oral, dose giving positive response
Procedure: as §3

MUR breast tumor line = test: Effective dose, MUR xenograft in nude mice; type: in vivo, human; details: oral, dose giving positive response
Procedure: as §3

LIE pancreas tumor line = test: Effective dose, LIE xenograft in nude mice; type: in vivo, human; details: oral, dose giving positive response
Procedure: as §3

McC colon tumor line = test: Effective dose, McC xenograft in nude mice; type: in vivo, human; details: oral, dose giving positive response
Procedure: as §3

[6] = Determination of PK parameters after oral administration to nude mice; type: in vivo
Procedure: The determination of PK parameters of crystalline CZ48 hydrate. Pharmacokinetic profile of crystalline camptothecin-20-O-propionate hydrate with a single dose of 2000 mg/kg was recorded following an oral administration to nude mice. […] Camptothecin-20-O-acetate, an analogue of CZ48 which was not a crystalline hydrate, was used as an internal standard for determining all PK parameters of the CZ48 hydrate. A 100 μL plasma from the mouse treated with crystalline CZ48 hydrate at dose of 2000 mg/kg was transferred into a 2-mL test-tube, and then 100 μL of internal-standard working solution (400 ng/mL) was also added to the tube. To the mixture, were also added 200 μL of 1% acetic acid solution and 1 mL ethyl ether. After vortex-mixing for 10 s, the mixture was incubated at room temperature on a shaker for 10 min, and then centrifuged at 10,000×g for 15 min. The upper layer obtained from the centrifugation was transferred into a clean tube and evaporated to dryness using an evaporator at 40° C. under a stream of nitrogen. The residue was reconstituted in 200 μL of water/acetonitrite (50/50, v/v) solvent system, and a 20-μL portion of the aliquot was injected into HPLC system for analysis. For the study, A 100 μL blank plasma from untreated mouse was also processed in the same manner as the treated.

human Lung tumor lines = test: Anti-tumor activity, lung tumor xenografts in nude mice; type: in vivo; details: oral
Excerpt: as §1, §2

SQU colon tumor line = test: Effective dose, SQU xenograft in nude mice; type: in vivo, human; details: oral, dose giving positive response
Procedure: as §3

human Breast tumor lines = test: Anti-tumor activity, breast tumor xenografts in nude mice; type: in vivo; details: oral
Excerpt: as §1, §2

FOSS melanoma line = test: Effective dose, FOSS xenograft in nude mice; type: in vivo, human; details: oral, dose giving positive response
Procedure: as §3

[7] = system: human Pancreas tumor lines; test: Anti-tumor activity, pancreatic tumor xenografts in nude mice; type: in vivo; details: oral
Excerpt: as §1
as §3, with “Treatment was initiated when the tumor had reached a volume of about 200 mm^3, i.e., well-vascularized, measurable, and growing exponentially.” left out, “The effective doses were established when a positive response in mouse was reached.” left out

SW48 colon tumor line = test: Effective dose, SW48 xenograft in nude mice; type: in vivo, human; details: oral, dose giving positive response
Procedure: as §3

HT29 colon tumor line = test: Effective dose, HT29 xenograft in nude mice; type: in vivo, human; details: oral, dose giving positive response
Procedure: as §3

[8] = In vivo toxicity determination (body weight) in nude mice; details: continuously for 60 days
Procedure: In vivo toxicity determination. Groups of 4 or 5 animals of about the same age and having similar weights were chosen and treated with crystalline CZ48 hydrate orally at doses of 1500 mg/kg and 2000 mg/kg, respectively, continuously for 60 days. The 3 groups of mice chosen for the toxicity studies were healthy, of similar age and weights, and non-tumor-bearing. One group was used as control, and the other two groups were treated with the drug at two high-dose levels, 1500 mg/kg and 2000 mg/kg respectively, for about two months. The body weight changes in animals during the treatment were recorded for the treated group versus the untreated group beginning at day 0 and ending at the 60th day.
The body-weight loss was used as a parameter to measure the toxicity of the agent. Usually, body weight loss of 10% or more in mice during treatment is considered a sign of toxicity. Greater body-weight loss signifies greater toxicity.

human Colon tumor lines = test: Anti-tumor activity, colon tumor xenografts in nude mice; type: in vivo; details: oral
Excerpt: as §1, §2

[9] = Pharmacokinetics for CPT in human plasma (lactone ring intact); type: in vitro ADME; details: read-out: half-life time of the drug with the lactone ring intact
human tumor xenografts = details: in mice, against human tumor xenografts; cited from earlier work

For `CCC(=O)O[C@]1(CC)C(=O)OCc2c1cc1n(c2=O)Cc2cc3ccccc3nc2-1` [hydrated crystalline CZ48, crystalline camptothecin-20-O-propionate hydrate], the “Response Positive (inhibition of growth bigger than 50%), lines responding/tested” value (human Bladder tumor line) was 1/1, the “Response Positive (inhibition of growth bigger than 50%), lines responding/tested” value (human Melanoma lines) was 2/2 and the “% Crystalline CZ48 Hydrate Absorptions, Colon, Ave” value ([1]; colon, average of 4 mice) was −19.46%. For the same compound, the “% Crystalline CZ48 Hydrate Absorptions, Colon” value ([1]; colon, individual mice No. 1-4, HBSS pH 7.4, 37° C., 0.191 mL/min, listed as Crystalline CZ48 Hydrate, hydrate) was 8.04% and −35.17% and −73.24% and 6.82%, the “% Crystalline CZ48 Hydrate Absorptions, SI, Ave” value ([1]; small intestine, average of 4 mice) was 22.23% and the “% Crystalline CZ48 Hydrate Absorptions, SI” value ([1]; small intestine, individual mice No. 1-4, HBSS pH 7.4, 37° C., 0.191 mL/min, listed as Crystalline CZ48 Hydrate, hydrate) was 11.49% and 16.51% and 9.34% and 45.85%. The Effective dose (MYE DSRCT line) was 100 mg/kg, the Effective dose [2] was 100 mg/kg and the “Response Positive (inhibition of growth bigger than 50%), lines responding/tested” value (human DSRCT line) was 1/1. For the same compound, the Effective dose (DOY lung tumor line) was 15 mg/kg, the Effective dose (BRO melanoma line) was 100 mg/kg and the Effective dose (CAK-kidney) was 1000 mg/kg. For the same compound, the Effective dose (BOL bladder tumor line) was 200 mg/kg, the “tumor lines that achieved positive response (greater than 50% inhibition in tumor-growth inhibition)” value (human xenografts) was 18 lines and the Effective dose (SPA lung tumor line) was 100 mg/kg. For the same compound, the Effective dose (CLO-breast carcinoma; CLO (Breast), nude mice, dose giving positive response) was 4 mg/kg, the tumor growth inhibition (CLO-breast carcinoma; CLO-breast carcinoma, dose 4 mg/kg) was “complete inhibition” and the Effective dose (SU86.86-pancreas) was 1000 mg/kg. The Effective dose (PANC1-pancreas) was 1000 mg/kg, the Effective dose (WAR breast tumor line) was 200 mg/kg and the Effective dose [3] was 100 mg/kg. It also gave an Effective dose [4] of 300 mg/kg, an Effective dose [5] of 300 mg/kg and an Effective dose (MUR breast tumor line) of 300 mg/kg. The Effective dose (LIE pancreas tumor line) was 100 mg/kg, the Effective dose (McC colon tumor line) was 300 mg/kg and the AUC(0-t) ([6]; nude, mouse, in vivo, po, 2000 mg/kg) was 1930 ± 114 ng·h/mL. For the same compound, the “Response Positive (inhibition of growth bigger than 50%), lines responding/tested” value (human Lung tumor lines) was 2/2, the Effective dose (SQU colon tumor line) was 30 mg/kg and the “Response Positive (inhibition of growth bigger than 50%), lines responding/tested” value (human Breast tumor lines) was 3/3. The Effective dose (FOSS melanoma line) was 300 mg/kg, the “Response Negative (inhibition of growth smaller than 50%), lines/tested” value ([7]; Pancreas, nude mice) was 1/7 and the “Response Positive (inhibition of growth bigger than 50%), lines responding/tested” value ([7]; Pancreas, nude mice) was 6/7. For the same compound, the “pancreatic tumor lines that failed to obtain the positive response” value ([7]; 5 days-on and 2 days-off schedule) was 2 lines, the Effective dose (SW48 colon tumor line) was 100 mg/kg and the Effective dose (HT29 colon tumor line) was 50 mg/kg. For the same compound, the “toxicity in the treated mice” value ([8]; 1500 mg/kg and 2000 mg/kg orally, non-tumor-bearing mice) was “no noticeable toxicity”, the “dose mice could tolerate” value ([8]; oral, implied from no significant body-weight loss) was “higher than 2000 mg/kg” and the “Response Positive (inhibition of growth bigger than 50%), lines responding/tested” value (human Colon tumor lines) was 4/4.

Work on `CC[C@@]1(O)C(=O)OCc2c1cc1n(c2=O)Cc2cc3ccccc3nc2-1` [CPT, camptothecin, reference compound] yielded a half-life [9] of ~30 min and a Ke ([6]; mice, oral hydrated crystalline CZ48 2000 mg/kg, plasma, CPT = major metabolite) of 0.40 ± 0.13 h⁻¹.

For `CC[C@@]1(O)C(=O)OCc2c1cc1n(c2=O)Cc2cc3c([N+](=O)[O-])cccc3nc2-1` [9-nitrocamptothecin], the “potency relative to CPT” value (human tumor xenografts) is given as 2-3 times.
